From patent publication US9999616B2 (ZENITH EPIGENETICS LTD., priority 2013, dated 2018) come the findings set out here.

Test [1] has as its system hIL-6 mRNA. Put plainly: Inhibition of hIL-6 mRNA transcription in LPS-stimulated U937 macrophages. Format: cell-based, Human. The following applies: Homo sapiens, U-937, PMA-differentiated U937 cells, 1 h pretreatment, LPS 3 h, read-out: IL-6 activity. In short, it runs like this:
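PMA-differentiated U937 macrophages (60 ng/mL PMA, 3 days) pretreated 1 h with compound in 0.1% DMSO, then stimulated with 1 ug/mL E. coli LPS for 3 h at 37° C. IL-6 mRNA quantified by one-step TaqMan qRT-PCR, normalized to cyclophilin; fold expression relative to control, triplicate wells.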

The test system of test [2] is Human AML MV-4-11 cells. Put plainly: Inhibition of cell proliferation in MV4-11 cells (CellTiter Aqueous One). Format: cell-based. The following applies: MV4-11, 72 h. In short, it runs like this:
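MV4-11 cells, 5×10^4 per well in IMDM with 10% FBS, were exposed to increasing compound concentrations or 0.1% DMSO for 72 h at 37 °C in triplicate. Viability was read by MTS (CellTiter Aqueous One) absorbance at 490 nm after 3-4 h. IC50 was derived from background-corrected signal relative to DMSO.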

In test [3] the test system is c-myc in Human AML MV4-11 cells. Put plainly: Inhibition of cMYC expression (mRNA, real-time PCR) in MV4-11 cells. Format: cell-based. The following applies: 3 h treatment, cMYC mRNA by real-time PCR. Summed up: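 MV4-11 cells in IMDM with 10% FBS were treated with increasing compound concentrations (DMSO 0.1%) for 3 h at 37 °C, in triplicate. Isolated mRNA was quantified by one-step TaqMan RT-qPCR, cMYC Ct normalized to cyclophilin, and fold expression given relative to DMSO control.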
In general terms: Real-time PCR tracks product formation cycle by cycle.

Test [4] concerns the target Brd4 bromodomain 1 (BRD4(1)) (Homo sapiens, UniProt O60885). Put plainly: Inhibition of tetra-acetylated histone H4 binding to Brd4 bromodomain 1, measured by FRET (HTRF). Further details: made in house; host or cells: E. coli BL21(DE3). The following applies: 2 h at room temperature. Summed up: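 N-terminally His-tagged bromodomain (200 nM), expressed in E. coli and purified by Ni affinity and size exclusion, was incubated with biotinylated tetra-acetylated H4 peptide (25-50 nM), Eu-cryptate streptavidin and XL665 anti-His in HEPES pH 7.4 buffer with 0.2% DMSO. Reactions ran 2 h at room temperature. IC50 came from the 665/620 nm fluorescence decrease.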

On to `Cc1noc(C)c1-c1cc(-c2c(C)nn(C)c2C)c2c(c1)ncn2C` [Example Compound 182, 3,5-dimethyl-4-(1-methyl-7-(1,3,5-trimethyl-1H-pyrazol-4-yl)-1H-benzo[d]imidazol-5-yl)isoxazole], for which the IC50 in test [1] is at most 300 nM; in test [2] it was 300 to 3000 nM; in test [3] it was at most 300 nM; in test [4], at most 300 nM.

For the compound `Cc1nc2c(-c3cccnc3)cc(-c3c(C)noc3C)cc2[nH]1` [Example Compound 79, 3,5-dimethyl-4-(2-methyl-4-(pyridin-3-yl)-1H-benzo[d]imidazol-6-yl)isoxazole], the IC50 in test [1] is 300 to 3000 nM; in test [2] it was 300 to 3000 nM; in test [3], at most 300 nM; in test [4], at most 300 nM.

As to `Cc1ccncc1-c1cc(-c2c(C)noc2C)cc2[nH]c(NC3CCOCC3)nc12` [Example Compound 201, 6-(3,5-dimethyl-isoxazol-4-yl)-4-(4-methyl-pyridin-3-yl)-N-(tetra hydro-2H-pyran-4-yl)-1H-benzo[d] imidazol-2-amine], the IC50 in test [1], in test [2], in test [3] and in test [4] was at most 300 nM in each case.

In the case of `Cc1nc2c(-c3ccc4scnc4c3)cc(-c3c(C)noc3C)cc2[nH]1` [Example Compound 124, 4-(4-(benzo[d]thiazol-5-yl)-2-methyl-1H-benzo[d]imidazol-6-yl)-3,5-dimethyl isoxazole], the IC50 was 300 to 3000 nM in test [1], 300 to 3000 nM in test [2], 300 to 3000 nM in test [3] and at most 300 nM in test [4].

As for `Cc1ncsc1-c1cc(-c2c(C)noc2C)cc2[nH]cnc12` [Example Compound 26, 3,5-dimethyl-4-(4-(4-methylthiazol-5-yl)-1H-benzo[d]imidazol-6-yl)isoxazole], the IC50 in test [1] is at most 300 nM; in test [2], 300 to 3000 nM; in test [3], 300 to 3000 nM; in test [4] it was at most 300 nM.

For the compound `Cc1noc(C)c1-c1cc(NCCc2ccccc2)c2nc[nH]c2c1` [Example Compound 142, 6-(3,5-dimethyl-isoxazol-4-yl)-N-phenethyl-1H-benzo[d] imidazol-4-amine], the IC50 in test [1], in test [2], in test [3] and in test [4] was 300 to 3000 nM each time.

For `COc1c(-c2c(C)noc2C)cc2[nH]c(C)nc2c1-c1c(C)noc1C` [Example Compound 227, 4,4′-(5-methoxy-2-methyl-1H-benzo[d]imidazole-4,6-diyl)bis(3,5-dimethylisoxazole)], the IC50 in test [1] is 300 to 3000 nM; in test [2], 3000 to 30000 nM; in test [3] it was 300 to 3000 nM; in test [4] it was 300 to 3000 nM.

Regarding `Cc1nc2c(-c3ccccc3OC(F)(F)F)cc(-c3c(C)noc3C)cc2[nH]1` [Example Compound 77, 3,5-dimethyl-4-(2-methyl-4-(2-(trifluoro-methoxy)phenyl)-1H-benzo[d]imidazol-6-yl)isoxazole], the IC50 in test [1] is 300 to 3000 nM; in test [2], 300 to 3000 nM; in test [3], at most 300 nM; in test [4], at most 300 nM.

On to `Cc1nc2c(-c3csnc3C)cc(-c3c(C)noc3C)cc2[nH]1` [Example Compound 52, 3,5-dimethyl-4-(2-methyl-7-(3-methyliso-thiazol-4-yl)-1H-benzo[d]imidazol-5-yl)isoxazole], for which the IC50 in test [1] was 300 to 3000 nM; in test [2], 300 to 3000 nM; in test [3], 300 to 3000 nM; in test [4] it was at most 300 nM.

Regarding `Cc1noc(C)c1-c1cc(-c2c(C)noc2C)c2cn[nH]c2c1` [Example Compound 87, 4,4′-(1H-indazole-4,6-diyl)bis(3,5-dimethylisoxazole)], the IC50 in test [1] was 300 to 3000 nM; in test [2] it was 300 to 3000 nM; in test [3] it was 300 to 3000 nM; in test [4], at most 300 nM.

On to `Cc1nn(C)cc1-c1cc(-c2c(C)noc2C)cc2cn[nH]c12` [Example Compound 120, 4-(7-(1,3-dimethyl-1H-pyrazol-4-yl)-1H-indazol-5-yl)-3,5-dimethyl isoxazole], for which the IC50 was at most 300 nM in test [1], 300 to 3000 nM in test [2], at most 300 nM in test [3] and at most 300 nM in test [4].

On to `Cc1nc2c(-c3ccc4nncn4c3)cc(-c3c(C)noc3C)cc2[nH]1` [Example Compound 156, 4-(4-([1,2,4]triazolo [4,3-a]pyridin-6-yl)-2-methyl-1H-benzo[d]imidazol-6-yl)-3,5-dimethyl isoxazole], for which the IC50 in test [1] is 3000 to 30000 nM; in test [2], 3000 to 30000 nM; in test [3], 300 to 3000 nM; in test [4], at most 300 nM.

Take `Cc1noc(C)c1-c1cc(-c2cccc(C(N)=O)c2C)c2nc(NC3CCOCC3)[nH]c2c1` [Example Compound 207, 3-(6-(3,5-dimethyl-isoxazol-4-yl)-2-((tetrahydro-2H-pyran-4-yl)amino)-1H-benzo[d]imidazol-4-yl)-2-methyl benzamide]: the IC50 is 300 to 3000 nM in test [1], 300 to 3000 nM in test [2], 300 to 3000 nM in test [3] and at most 300 nM in test [4].

`COc1cccc(Nc2cc(-c3c(C)noc3C)cc3[nH]cnc23)c1` [Example Compound 33, 6-(3,5-dimethyl-isoxazol-4-yl)-N-(3-methoxy-phenyl)-1H-benzo[d] imidazol-4-amine]: the IC50 in test [1] is 300 to 3000 nM; in test [2], 300 to 3000 nM; in test [3] it was 300 to 3000 nM; in test [4], at most 300 nM.

On to `Cc1noc(C)c1-c1cc(-c2ccccc2CN(C)C)c2nc[nH]c2c1` [Example Compound 28, 1-(2-(6-(3,5-dimethyl-isoxazol-4-yl)-1H-benzo[d]imidazol-4-yl)phenyl)-N,N-dimethyl methanamine], for which the IC50 in test [1], in test [2], in test [3] and in test [4] was 300 to 3000 nM each time.

As for `Cc1nc2c(-c3c(Cl)cncc3Cl)cc(-c3c(C)noc3C)cc2[nH]1` [Example Compound 130, 4-(4-(3,5-dichloro-pyridin-4-yl)-2-methyl-1H-benzo[d]imidazol-6-yl)-3,5-dimethyl isoxazole], the IC50 in test [1] is at most 300 nM; in test [2], 300 to 3000 nM; in test [3], 300 to 3000 nM; in test [4] it was at most 300 nM.

Take `Cc1nc2c(-c3cc(F)ccc3C(F)(F)F)cc(-c3c(C)noc3C)cc2[nH]1` [Example Compound 80, 4-(4-(5-fluoro-2-(trifluoro-methyl)phenyl)-2-methyl-1H-benzo[d]imidazol-6-yl)-3,5-dimethyl isoxazole]: the IC50 is 300 to 3000 nM in test [1], 300 to 3000 nM in test [2], at most 300 nM in test [3] and at most 300 nM in test [4].

As for `COc1ccc(Cl)cc1-c1cc(-c2c(C)noc2C)cc2[nH]c(C)nc12` [Example Compound 107, 4-(4-(5-chloro-2-methoxy-phenyl)-2-methyl-1H-benzo[d]imidazol-6-yl)-3,5-dimethyl isoxazole], the IC50 in test [1] is 300 to 3000 nM; in test [2], 300 to 3000 nM; in test [3], 300 to 3000 nM; in test [4], at most 300 nM.
